PubChem BioAssay (NCI)
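A five-concentration, 48-hour dose response in 96-well plates underlies each endpoint, interpolated linearly between surrounding concentrations. Here, GI50 denotes the concentration required for 50% inhibition of growth. At the TGI there is no net growth.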

How the values were obtained:
Test in all cases: NCI tumour cell line growth inhibition, 48 h
[1] = test system: NCI-H460 lung
[2] = test system: OVCAR-4 ovarian
[3] = test system: RXF 393 renal
[4] = test system: HCC-2998 colon
[5] = test system: CCRF-CEM leukemia
[6] = test system: NCI-H23 lung
[7] = test system: SNB-19 CNS
[8] = test system: ACHN renal
[9] = test system: MALME-3M melanoma
[10] = test system: K-562 leukemia
[11] = test system: SR leukemia
[12] = test system: NCI-H522 lung
[13] = test system: SK-MEL-5 melanoma
[14] = test system: NCI-H226 lung
[15] = test system: HCT-15 colon
[16] = test system: HCT-116 colon
[17] = test system: MDA-MB-231 breast
[18] = test system: UACC-62 melanoma
[19] = test system: COLO 205 colon
[20] = test system: HS 578T breast
[21] = test system: SF-539 CNS
[22] = test system: OVCAR-5 ovarian
[23] = test system: MCF7 breast
[24] = test system: KM12 colon
[25] = test system: UACC-257 melanoma
[26] = test system: T-47D breast
[27] = test system: CAKI-1 renal
[28] = test system: LOX IMVI melanoma
[29] = test system: SK-OV-3 ovarian
[30] = test system: A549 NSCLC
[31] = test system: NCI/ADR-RES ovarian
[32] = test system: 786-0 renal
[33] = test system: SF-295 CNS
[34] = test system: HL-60(TB) leukemia
[35] = test system: MDA-MB-435
[36] = test system: HOP-62 NSCLC
[37] = test system: HOP-92 NSCLC
[38] = test system: OVCAR-3 ovarian
[39] = test system: U251 CNS
[40] = test system: SF-268 CNS
[41] = test system: EKVX NSCLC
[42] = test system: UO-31 renal
[43] = test system: SK-MEL-2 melanoma
[44] = test system: DU-145 prostate
[45] = test system: RPMI-8226 leukemia
[46] = test system: SNB-75 CNS
[47] = test system: IGROV1 ovarian
[48] = test system: PC-3 prostate
[49] = test system: TK-10 renal
[50] = test system: SK-MEL-28 melanoma
[51] = test system: SN12C renal
[52] = test system: OVCAR-8 ovarian
[53] = test system: HT29 colon
[54] = test system: SW-620 colon
[55] = test system: BT-549 breast
[56] = test system: MOLT-4 leukemia
[57] = test system: M14 melanoma

**Q.** Which results are given for `CC1=C2C(=O)[C@](C)(CO)C=C2C(=O)[C@](C)(O)C12CC2`?
**A.** GI50 [1]: 2.49 µM; TGI [1]: 7.21 µM; GI50 [2]: 1.91 µM; TGI [2]: 3.36 µM; GI50 [3]: 1.88 µM; TGI [3]: 3.52 µM; GI50 [4]: 1.72 µM; TGI [4]: 3.33 µM; GI50 [5]: 3.08 µM; TGI [5]: 13.8 µM; GI50 [6]: 1.84 µM; TGI [6]: 3.57 µM; GI50 [7]: 3.05 µM; TGI [7]: 10.5 µM; GI50 [8]: 1.86 µM; TGI [8]: 3.56 µM; GI50 [9]: 1.86 µM; TGI [9]: 3.52 µM; GI50 [10]: 3.47 µM; TGI [10]: > 100 µM; GI50 [11]: 2.52 µM; TGI [11]: 17.7 µM; GI50 [12]: 2.04 µM; TGI [12]: 4.31 µM; GI50 [13]: 1.81 µM; TGI [13]: 3.29 µM; GI50 [14]: 2.18 µM; TGI [14]: 5.71 µM; GI50 [15]: 2.08 µM; TGI [15]: 4.92 µM; GI50 [16]: 1.82 µM; TGI [16]: 3.84 µM; GI50 [17]: 1.98 µM; TGI [17]: 3.99 µM; GI50 [18]: 1.88 µM; TGI [18]: 3.89 µM; GI50 [19]: 2.47 µM; TGI [19]: 6.4 µM; GI50 [20]: 2.01 µM; TGI [20]: 5 µM; GI50 [21]: 1.82 µM; TGI [21]: 3.54 µM; GI50 [22]: 2.53 µM; TGI [22]: 6.67 µM; GI50 [23]: 1.47 µM; TGI [23]: 3.16 µM; GI50 [24]: 2.23 µM; TGI [24]: 5 µM; GI50 [25]: 2.59 µM; TGI [25]: 7.35 µM; GI50 [26]: 2.33 µM; TGI [26]: 6.42 µM; GI50 [27]: 1.63 µM; TGI [27]: 3.07 µM; GI50 [28]: 1.72 µM; TGI [28]: 3.3 µM; GI50 [29]: 3.36 µM; TGI [29]: 10.9 µM; GI50 [30]: 2.91 µM; TGI [30]: 9.46 µM; GI50 [31]: 1.89 µM; TGI [31]: 4.02 µM; GI50 [32]: 2.1 µM; TGI [32]: 4.92 µM; GI50 [33]: 2.22 µM; TGI [33]: 5.2 µM; GI50 [34]: 2.46 µM; TGI [34]: 6.21 µM; GI50 [35]: 1.84 µM; TGI [35]: 3.41 µM; GI50 [36]: 3.2 µM; TGI [36]: 11.6 µM; GI50 [37]: 2.12 µM; TGI [37]: 4.45 µM; GI50 [38]: 1.8 µM; TGI [38]: 3.26 µM; GI50 [39]: 2.52 µM; TGI [39]: 7.48 µM; GI50 [40]: 2.49 µM; TGI [40]: 7.05 µM; GI50 [41]: 3.05 µM; TGI [41]: 10.2 µM; GI50 [42]: 1.66 µM; TGI [42]: 3.17 µM; GI50 [43]: 2.39 µM; TGI [43]: 5.2 µM; GI50 [44]: 2.2 µM; TGI [44]: 4.89 µM; GI50 [45]: 2.28 µM; TGI [45]: 5.63 µM; GI50 [46]: 1.26 µM; TGI [46]: 3.94 µM; GI50 [47]: 2.4 µM; TGI [47]: 6.47 µM; GI50 [48]: 2.83 µM; TGI [48]: 9.03 µM; GI50 [49]: 2.23 µM; TGI [49]: 5.63 µM; GI50 [50]: 2.06 µM; TGI [50]: 4.19 µM; GI50 [51]: 2.19 µM; TGI [51]: 5.62 µM; GI50 [52]: 2.62 µM; TGI [52]: 8.31 µM; GI50 [53]: 3.25 µM; TGI [53]: 11.8 µM; GI50 [54]: 1.86 µM; TGI [54]: 3.96 µM; GI50 [55]: 1.75 µM; TGI [55]: 3.6 µM; GI50 [56]: 3.23 µM; TGI [56]: 13.1 µM; GI50 [57]: 1.8 µM; TGI [57]: 3.56 µM
